Experimental data reported in patent publication US20220118036A1, “USE OF MORCHELLA ACTIVE SUBSTANCE” (GRAPE KING BIO LTD., priority 2020, published 2022).
Values joined by “and” are separate entries in the source; they are usually repeats but may differ in a detail not shown here. Identical values can stand only once.

Tested on: mouse skeletal muscle cells C2C12
Experiment: Dexamethasone-induced muscle atrophy of differentiated C2C12 myotubes (myotube width, H&E staining)
Format: cell-based
Conditions: 1 μM Dexamethasone alone, 24 hours, mean±SD, n = 60, control 30.39 ± 4.52
Procedure: Currently, there have been experiments using Dexamethasone to induce muscle atrophy in mouse skeletal muscle cell C2C12. […] This paper uses a synthetic glucocorticoid-Dexamethasone to induce differentiated C2C12 atrophy as a model of muscle atrophy for sarcopenia study, in which the severity of muscle atrophy is measured according to the observation of morphology and diameter of the myotubes. According to such a method, in this experiment, the differentiated mouse skeletal muscle cell C2C12 is stained with H&E (hematoxylin and eosin) to assess the effect of the Morchella mycelium active substance in muscle atrophy. The experimental method is as follows:
(1) After the mouse skeletal muscle cells C2C12 was collected and the cell suspension concentration was adjusted, the cells were plated in a 6-well plate at a cell density of 1×10^5-2×10^5 with the cell growth medium (DMEM, 10% Fetal Bovine Serum).
(2) The 6-well plate of (1) was placed in a 5% CO2 incubator at 37° C. for two days and then observed under a microscope. […]
(5) Each test was repeated 3 times, and the numerical value was expressed as mean±SD (standard deviation). The statistical method used paired t-test to analyze the percentages of each item, and the significant difference was determined when the p-value was less than 0.05.

For C[C@@H]1C[C@H]2[C@@H]3CCC4=CC(=O)C=C[C@]4(C)[C@@]3(F)[C@@H](O)C[C@]2(C)[C@@]1(O)C(=O)CO [Dexamethasone], the myotube diameter was 19.98 μm and 19.98 ± 6.42 μm.
